# Data as given in patent US10344330B2, “Glatiramer acetate response biomarker mRNA potency assay” (Mylan Inc., priority 2013, dated 2019).
# How the values were obtained:
# Assay type in all cases: cell-based, mouse
# [1] = system: IL-1b secreted by LN cells; experiment: IL-1b secretion by GA-stimulated LN cells, MSD 9-plex ELISA (Example II); conditions: for IL-1b secretion response ratio (treated cell medium to control DCCM1 medium): 21 hr
# [2] = system: mIFN-γ mRNA in primary LN cells; experiment: mIFN-γ mRNA by real-time PCR in stimulated LN cells of immunized (SJL/J×BALB/C)F1 mice (Example I)
# Experimental: For each of the three experiments summarized in Table 1, female (SJL/J×BALB/C) F1 hybrid (Jackson Laboratory) mice were immunized by footpad injection with either 250 μg GMA (Mylan Pharmaceuticals, Inc.) and CFA (Sigma Aldrich), or Mannitol and CFA (as a negative control). The GA solution was diluted to 5 mg/mL with Dulbecco's Phosphate-buffered saline. A dose solution was then prepared by mixing the diluted GA solution (5 mg/mL) and CFA (1:1) until well-emulsified. Each mouse received a total injection volume of 0.1 mL (250 μg GA). Animals were immunized on Day 0. Immunized animals were sacrificed via cervical dislocation on Day 10 following immunization. […] The LN were washed 3 times with −5 mL of RPMI medium, and the LN cells isolated by pressing the LN with a syringe plunger. […] The cell suspension was centrifuged at about 200×g for 10 minutes at about 4° C. and re-suspended in ice cold enriched DCCM-1 medium. The LN cells (2.5×10^6 cells/cm^2) were plated in the wells of a 48-well tissue culture plate and stimulated with GA or controls.
# Expression of cytokine mRNA was quantitatively analyzed using a Real-Time PCR system (7500, Applied Biosystems).
# (DCCM1 from Beit Haemek Ltd.; Cat. No. 05 010 1A). There was no MBP treatment for the 2-hour groups.
# Group 1B animals were female (SJL/J×BALB/C) F1 hybrid (Jackson Laboratory) mice immunized by footpad injection with either 250 μg GA and CFA, or Mannitol and CFA (as a negative control). A dose solution was prepared by mixing a diluted GA solution (5 mg/mL) and CFA (1:1). Each mouse received a total injection volume of […] (250 μg GA). Animals were immunized on Day 0. Immunized animals were sacrificed via cervical dislocation on Day 10 following immunization. Lymph nodes from immunized mice were removed and isolated. LN cells (2.5×10^6 cells/cm^2) were plated in the wells of a 48-well tissue culture plate for stimulation with GA.
# Expression of cytokine mRNA was quantitatively analyzed 4 and 6 hours after using a Real-Time PCR system (7500, Applied Biosystems).
# IL-2 mRNA in LN cells = experiment: IL-2 mRNA by real-time PCR in LN cells of GA-immunized CD-1, BALB/cByJ, SJL/J mice (Example III); conditions: 6 hours
# Experimental: (§1) On Day 0, mice were immunized with 250 μg GA (GMA, Mylan Pharmaceuticals, Inc.) and CFA. The GA solution (20 mg/mL) was diluted with Dulbecco's Phosphate-Buffered Saline to 5 mg/mL. The dosing formulation consisted of equal volumes of the diluted GA solution (5 mg/mL) and CFA solution, mixed until well-emulsified. Animals were weighed and allocated to groups. Animals were dosed by injection into four footpads. The injection volume per animal was 0.1 mL (about 10 μL into each front footpad, and 40 μL into each hind footpad).
# (§2) Immunized animals were euthanized by cervical dislocation on Day 10 post-immunization. Lymph node cells were isolated from animals and treated with Myelin Basic Protein (MBP, a negative control), Concanavalin A (ConA, a positive control) or GA as shown in Table 16. Lymph nodes in the axillary and popliteal regions were removed aseptically in a purifier clean bench. […] The LN were then washed 3 times with −5 mL of RPMI medium, and isolated by pressing the LN with a syringe plunger. […] The cell suspension was centrifuged at about 200×g for 10 minutes at about 4° C. and re-suspended in ice cold enriched DCCM-1 medium. Cells were seeded in 96-well tissue culture plates.
# (§3) LN cells isolated from GA-immunized animals were stimulated with GA (GMA, Mylan Pharmaceuticals, Inc.) at concentrations as indicated in Tables 16 and 17. A positive control was prepared by treating LN cells with 2.5 μg/mL concavalin A (ConA, a non-specific T cell stimulant). Myelin basic protein (MBP, 10 μg/mL) and enriched DCCM-1 medium served as negative controls. The cells from all groups each were stimulated with the same GA lot. Each reaction was set up in triplicate.
# (§4) After incubation at about 37° C. in a humidified CO2 incubator for 6 hours, the cells were lysed for total RNA isolation. Total RNA was isolated from treated LN cells using SV 96 Total RNA Isolation System according to the manufacturer's protocol (Promega, Cat. #Z3500). Cells were washed once with Phosphate Buffered Saline (PBS) and lysed in RNA lysis buffer. The lysate was transferred to wells of the SV 96 binding plate. Samples were washed with RNA wash solution and treated with DNase. Total RNA was eluted with nuclease-free water from the binding plate.
# (§5) After the reverse transcriptase reaction was completed, cDNA samples were used directly for real-time PCR to measure the response biomarker mRNA levels produced by the stimulated cells. […] All probes for target genes contained FAM dye, and probes for the internal control contained VIC®/MGB dye. Samples will be prepared and run in 96-well plates using a Real-Time PCR system (7500, Life Technologies). This system allows direct detection of PCR-product formation by measuring the increase in fluorescent emission continuously during the PCR reaction. A relative quantitation method was used to analyze changes in mouse IL-2, IL-4, IL-5, IL-10, IL-13, IFN-γ and TNF-α expression in GA-treated samples relative to the untreated control (enriched DCCM-1 treated) samples. The Real-Time PCR program was:
# (§6) The levels of mouse cytokine amplicons (IL-2, IL-4, IL-5, IL-10, IL-13, mIFN-γ and TNF-α) were normalized to internal probe levels (GAPDH) from the same samples. The following equations were used to calculate the relative increase in response to GA stimulation compared to the control sample: ΔCT=CT_target−CT_reference ΔΔCT=−ΔCT_Treated−CT_VC
# IL-5 mRNA in LN cells = experiment: IL-5 mRNA by real-time PCR in LN cells of GA-immunized CD-1, BALB/cByJ, SJL/J mice (Example III); conditions: 6 hours
# Experimental: as §1, §2, §3, §4, §5, §6
# [3] = system: KC (CXCL1) secreted by LN cells; experiment: KC (CXCL1) secretion by GA-stimulated LN cells, MSD 9-plex ELISA (Example II); conditions: for KC secretion response ratio (treated cell medium to control DCCM1 medium): 21 hr
# [4] = BALB/cByJ, immunized GA Lower Limb
# [5] = C57BL10J, immunized GA Lower Limb
# [6] = Experiment 1, GA-immunized (SJL/J×BALB/C)F1, 2 hour post stimulation, GA 10, ConA 2.5 μg/mL
# [7] = Experiment 1, GA-immunized (SJL/J×BALB/C)F1, 4 hour post stimulation, GA 10, MBP 10, ConA 2.5 μg/mL
# [8] = Experiment 1, GA-immunized (SJL/J×BALB/C)F1, 6 hour post stimulation, GA 10, MBP 10, ConA 2.5 μg/mL
# [9] = Experiment 1, GA-immunized (SJL/J×BALB/C)F1, 24 hour post stimulation, GA 10, MBP 10, ConA 2.5 μg/mL
# [10] = Group 1B (GA + CFA), 4 hours post-stimulation, GA 10, MBP 10, ConA 2.5 μg/mL, reference GAPDH
# [11] = Group 1B (GA + CFA), 6 hours post-stimulation, GA 10, MBP 10, ConA 2.5 μg/mL, reference GAPDH
# [12] = Group 2B (Mannitol + CFA), 4 hours post-stimulation, GA 10, MBP 10, ConA 2.5 μg/mL, reference GAPDH
# [13] = Group 2B (Mannitol + CFA), 6 hours post-stimulation, GA 10, MBP 10, ConA 2.5 μg/mL, reference GAPDH
# [14] = Group 1C: CD-1, GA-immunized, stimulation 2.5 μg/mL
# [15] = Group 2C: BALB/cByJ, GA-immunized, stimulation 2.5 μg/mL
# [16] = Group 3C: SJL/J, GA-immunized, stimulation 2.5 μg/mL
# [17] = Group 1C: CD-1, GA-immunized, stimulation 0.3 μg/mL
# [18] = Group 1C: CD-1, GA-immunized, stimulation 1 μg/mL
# [19] = Group 1C: CD-1, GA-immunized, stimulation 3 μg/mL
# [20] = Group 1C: CD-1, GA-immunized, stimulation 10 μg/mL
# [21] = Group 2C: BALB/cByJ, GA-immunized, stimulation 0.3 μg/mL
# [22] = Group 2C: BALB/cByJ, GA-immunized, stimulation 1 μg/mL
# [23] = Group 2C: BALB/cByJ, GA-immunized, stimulation 3 μg/mL
# [24] = Group 2C: BALB/cByJ, GA-immunized, stimulation 10 μg/mL
# [25] = Group 3C: SJL/J, GA-immunized, stimulation 0.3 μg/mL
# [26] = Group 3C: SJL/J, GA-immunized, stimulation 1 μg/mL
# [27] = Group 3C: SJL/J, GA-immunized, stimulation 3 μg/mL
# [28] = Group 3C: SJL/J, GA-immunized, stimulation 10 μg/mL
substance,measurement,setting,value
"Concanavalin A [ConA, reference compound]",IL-1b secretion response ratio (treated cell medium to control DCCM1 medium),"[1]; BALB/cByJ, immunized GA Intraplantar",11.73
same,IL-1b secretion response ratio (treated cell medium to control DCCM1 medium),[1]; [4],8.70
same,IL-1b secretion response ratio (treated cell medium to control DCCM1 medium),[1]; [5],1.42
same,IL-1b secretion response ratio (treated cell medium to control DCCM1 medium),"[1]; CD-1, immunized GA Lower Limb",2.86
same,mIFN-γ mRNA Level,[2]; [6],40.9 fold change vs control
same,mIFN-γ mRNA Level,[2]; [7],49.3 fold change vs control
same,mIFN-γ mRNA Level,[2]; [8],18.2 fold change vs control
same,mIFN-γ mRNA Level,[2]; [9],0.4 fold change vs control
same,mIFN-γ mRNA Level,[2]; [10],29.5 fold change vs control
same,mIFN-γ mRNA Level,[2]; [11],3.0 fold change vs control
same,mIFN-γ mRNA Level,[2]; [12],15.5 fold change vs control
same,mIFN-γ mRNA Level,[2]; [13],8.9 fold change vs control
same,IL-2 mRNA Expression,IL-2 mRNA in LN cells; [14],17.1 fold change vs control
same,IL-2 mRNA Expression,IL-2 mRNA in LN cells; [15],231.7 fold change vs control
same,IL-2 mRNA Expression,IL-2 mRNA in LN cells; [16],61.9 fold change vs control
same,IL-5 mRNA Expression,IL-5 mRNA in LN cells; [14],19.1 fold change vs control
same,IL-5 mRNA Expression,IL-5 mRNA in LN cells; [15],9.1 fold change vs control
same,IL-5 mRNA Expression,IL-5 mRNA in LN cells; [16],9.7 fold change vs control
same,KC secretion response ratio (treated cell medium to control DCCM1 medium),[3]; [4],0.90
same,KC secretion response ratio (treated cell medium to control DCCM1 medium),"[3]; C57BL10J, immunized GA Intraplantar",1.55
same,KC secretion response ratio (treated cell medium to control DCCM1 medium),[3]; [5],1.28
same,KC secretion response ratio (treated cell medium to control DCCM1 medium),"[3]; CD-1, immunized GA Lower Limb",1.65
"L-glutamic acid polymer with L-alanine, L-lysine and L-tyrosine, acetate (salt) [GA]","IL-1β secretion, dose response to GA (in words)","[1]; BALB/cByJ and CD-1, primed by intraplantar injection",Dose response of IL-1β was detected
same,mIFN-γ mRNA Level,[2]; [6],1.3 fold change vs control
same,mIFN-γ mRNA Level,[2]; [7],2.1 fold change vs control
same,mIFN-γ mRNA Level,[2]; [8],4.6 fold change vs control
same,mIFN-γ mRNA Level,[2]; [9],4.6 fold change vs control
same,mIFN-γ mRNA Level,[2]; [10],7.0 fold change vs control
same,mIFN-γ mRNA Level,[2]; [11],2.4 fold change vs control
same,mIFN-γ mRNA Level,[2]; [12],1.2 fold change vs control
same,mIFN-γ mRNA Level,[2]; [13],1.8 fold change vs control
same,IL-2 mRNA Expression,IL-2 mRNA in LN cells; [17],1.0 fold change vs control
same,IL-2 mRNA Expression,IL-2 mRNA in LN cells; [18],1.6 fold change vs control
same,IL-2 mRNA Expression,IL-2 mRNA in LN cells; [19],2.9 fold change vs control
same,IL-2 mRNA Expression,IL-2 mRNA in LN cells; [20],4.3 fold change vs control
same,IL-2 mRNA Expression,IL-2 mRNA in LN cells; [21],4.0 fold change vs control
same,IL-2 mRNA Expression,IL-2 mRNA in LN cells; [22],11.7 fold change vs control
same,IL-2 mRNA Expression,IL-2 mRNA in LN cells; [23],27.4 fold change vs control
same,IL-2 mRNA Expression,IL-2 mRNA in LN cells; [24],38.0 fold change vs control
same,IL-2 mRNA Expression,IL-2 mRNA in LN cells; [25],1.3 fold change vs control
same,IL-2 mRNA Expression,IL-2 mRNA in LN cells; [26],4.7 fold change vs control
same,IL-2 mRNA Expression,IL-2 mRNA in LN cells; [27],11.0 fold change vs control
same,IL-2 mRNA Expression,IL-2 mRNA in LN cells; [28],22.0 fold change vs control
same,IL-5 mRNA Expression,IL-5 mRNA in LN cells; [17],1.0 fold change vs control
same,IL-5 mRNA Expression,IL-5 mRNA in LN cells; [18],1.8 fold change vs control
same,IL-5 mRNA Expression,IL-5 mRNA in LN cells; [19],3.2 fold change vs control
same,IL-5 mRNA Expression,IL-5 mRNA in LN cells; [20],5.4 fold change vs control
same,IL-5 mRNA Expression,IL-5 mRNA in LN cells; [21],0.5 fold change vs control
same,IL-5 mRNA Expression,IL-5 mRNA in LN cells; [22],1.6 fold change vs control
same,IL-5 mRNA Expression,IL-5 mRNA in LN cells; [23],2.3 fold change vs control
same,IL-5 mRNA Expression,IL-5 mRNA in LN cells; [24],3.5 fold change vs control
same,IL-5 mRNA Expression,IL-5 mRNA in LN cells; [25],0.6 fold change vs control
same,IL-5 mRNA Expression,IL-5 mRNA in LN cells; [26],2.1 fold change vs control
same,IL-5 mRNA Expression,IL-5 mRNA in LN cells; [27],5.1 fold change vs control
same,IL-5 mRNA Expression,IL-5 mRNA in LN cells; [28],4.3 fold change vs control
same,"KC secretion, dose response to GA (in words)",[3]; cells from any of the three mouse strains,No dose response
